Experimental findings from patent publication EP0231622B1, “Inhibition of the 5-lipoxygenase pathway” (priority 1985, dated 1987) are described below.

Marks after values point to notes of the source that are not given here.

For assay [1], the system named is Arachidonic Acid-Induced Cellular Infiltration. The assay is described as follows: Arachidonic acid-induced air pouch inflammation. The class given is in vivo, Lewis rats. The note with it: 100 mg/kg; 3 hours after arachidonic acid. From the text:
(§1) In the following Examples where mice were used, they were male Balb/c mice (20-28 g), and where rats were used, they were male Lewis rats (180-210 g). All mice and rats were obtained from Charles River Breeding Laboratories, Kingston, N.Y. Within a single experiment, mice and rats were sex and age matched.
(§2) The compounds of Formula (IA) were used either as the free base or in the appropriate salt form. Levamisole was used as the hydrochloride salt. The compounds were homogenized in 0.5% tragacanth. Compounds were administered by gavage at the indicated dose in a final volume of 10 ml/kg. Nordihydroguaiaretic acid (NDGA) was solubilized in dimethylacetamide and diluted with olive oil for subcutaneous administration.
(§3) Rats were shaved on the dorsal flank, and then injected subcutaneously one day later with 20 ml of air to form a defined pouch, by the method of Sedgwick et al., J. Pathology, 141, 483-495 (1983). The air pouch was reinflated as necessary over the next 6 days. To assay anti-inflammatory activity, animals were treated orally with test compound or vehicle (10 ml/kg) one hour before injection of 2.0 ml of a 2.0% carrageenan suspension containing 200 units/ml penicillin and 100 »g/ml streptomycin into the air pouch. In other experiments, 5 ml of 0.1% arachidonic acid in 0.2 M bicarbonate buffer was injected two hours after drug treatment. Animals were sacrificed using CO₂ three hours after instillation of irritant. The exudate was then aspirated from the pouch and neutrophil count and differential cell count were measured.

Assay [2] relates to Polymorphonuclear Leukocytes. The assay is described as follows: Mouse Carrageenan Peritonitis (PMN infiltration). The assay is classed as in vivo, Balb/c mice. The note with it: for % Change / PMN x 10⁻⁵/ml (mean ± S.D.): Table 1, p.o.
From the text: as §1, §2
Mice were pretreated with either the test compound or vehicle one hour before the intraperitoneal injection of a 1.0% carrageenan suspension in saline (0.2 ml/ mouse). Mice were sacrificed by cervical dislocation two hours after injection, and 3.0 ml of phosphate buffered saline, without Ca⁺⁺ or Mg⁺⁺, was injected into the peritoneum. Following massage, a 2.0 ml aliquot of the lavage fluid was removed, and the total cell count determined on a Coulter counter and differential cell count determined by microscopic examination of Giesma-stained slides.

Assay [3] deals with Carrageenan-Induced Cellular Infiltration. The assay is described as follows: Carrageenan-induced air pouch inflammation. The class given is in vivo, Lewis rats. The settings on record: 100 mg/kg; 3 hours after carrageenan.
From the text: as §1, §2, §3

`Fc1ccc(-c2nc3n(c2-c2ccncc2)CCS3)cc1` [Compound 1, 5-(4-pyridyl)-6-(4-fluorophenyl)-2,3-dihydroimidazo[2,1-b]thiazole]: the entries for the “Cellular Infiltrate (Total x 10⁻⁶) MN” value in assay [1] and in assay [3] were 1.5 ± 1.1^d x 10⁻⁶ and 5.5 ± 3.8^e x 10⁻⁶, respectively. Also, the “Cellular Infiltrate (Total x 10⁻⁶) PMN” value in assay [1] is listed as 1.2 ± 0.7^e x 10⁻⁶; in assay [3], 2.6 ± 1.3^d x 10⁻⁶. The figures for the “Exudate Volume” value in assay [1] and in assay [3] were 2.6 ± 0.8 mL and 1.0 ± 0.9 mL, respectively. In addition, the ED50 in assay [2] (Mus musculus, Leukocyte, po, intraperitoneal carrageenan in mice, read-out: ED₅₀ (inhibition of PMN infiltration)) was determined as 43.9 mg/kg. For the same compound, the “% Change” value is -27^e % in assay [2] (25 mg/kg); -56^c % in assay [2] (50 mg/kg); -77^b % in assay [2] (100 mg/kg, PMN vs vehicle). The “PMN x 10⁻⁵/ml (mean ± S.D.)” value in assay [2] (50 mg/kg) turned out to be 4.84 ± 3.01 x 10⁻⁵/ml; in assay [2] (100 mg/kg, 1 h before i.p. carrageenan, read 2 h later), 2.48 ± 0.98 x 10⁻⁵/ml.
